The molecules below were run against T1, cGAMP binding domain of wild-type (GRR) human STING, residues 155-341 (Homo sapiens, UniProt Q86WV6, H232R) (assay: Increase of stability of STING protein against thermal denaturation, Differential Scanning Fluorimetry (DSF)).
T1 construct: His-TEV-hSTING (WT); TEV protease cleavage site (N); made in house; host or cells: E. coli BL21 DE3
T1 sequence (Q86WV6 with tags, fused parts or gaps H232R): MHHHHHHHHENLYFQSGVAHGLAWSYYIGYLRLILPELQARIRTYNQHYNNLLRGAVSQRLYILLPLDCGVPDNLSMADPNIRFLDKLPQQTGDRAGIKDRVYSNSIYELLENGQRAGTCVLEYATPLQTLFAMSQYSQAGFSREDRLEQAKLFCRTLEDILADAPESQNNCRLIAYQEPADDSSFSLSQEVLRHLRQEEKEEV
Outline: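 3 µM His-tagged protein with 100 uM compound, 5×SYPRO Orange, 2% DMSO in 20 mM Tris, 150 mM NaCl, pH7.5; 15–95 °C ramp in 0.5 °C steps (15 s/cycle). Tm from Boltzmann fit of the dye melt curve, duplicates averaged, repeated if SD>1.5 °C; ΔTm = Tm with compound minus Tm of protein alone.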
With `Cc1nc2nn(C)cc2cc1-n1nc(-c2cccc3nn(C[C@H](O)c4ccc(F)cc4)cc23)c(C(C)C)c1C` [Example 46, (1R)-2-[4-(1-{2,6-dimethyl-2H-pyrazolo[3,4-b]pyridin-5-yl}-5-methyl-4-(propan-2-yl)-1H-pyrazol-3-yl)-2H-indazol-2-yl]-1-(4-fluorophenyl)ethan-1-ol] the DSF was 27 K.
`Cc1c(C(C)C)c(-c2cccc3nn(C[C@H](O)c4ccccc4)cc23)nn1-c1cc2cn(C)nc2nc1C1CCOC1` (stereo partly drawn) [Example 47, (1R)-2-(4-{5-methyl-1-[2-methyl-6-(oxolan-3-yl)-2H-pyrazolo[3,4-b]pyridin-5-yl]-4-(propan-2-yl)-1H-pyrazol-3-yl}-2H-indazol-2-yl)-1-phenylethan-1-ol] was tested, and the DSF was 30 K.
In the case of `CCCn1cc2cc(-c3nc(-c4cccc5nn(CC(F)(F)c6ccccc6)cc45)c(C4CC4)n3C)c(C3CC3)nc2n1` [Example 48, 4-(5-cyclopropyl-2-{6-cyclopropyl-2-propyl-2H-pyrazolo[3,4-b]pyridin-5-yl}-1-methyl-1H-imidazol-4-yl)-2-(2,2-difluoro-2-phenylethyl)-2H-indazole], the DSF is reported as 31 K.
For `Cc1nc2nn(CCCN3CCOCC3)cc2cc1-n1nc(-c2cccc3nn(C[C@H](F)c4ccccc4)cc23)c(C(C)C)c1C` [Example 49, 2-[(2R)-2-fluoro-2-phenylethyl]-4-(5-methyl-1-{6-methyl-2-[3-(morpholin-4-yl)propyl]-2H-pyrazolo[3,4-b]pyridin-5-yl}-4-(propan-2-yl)-1H-pyrazol-3-yl)-2H-indazole], the DSF was 26 K.
With `Cc1c(C(C)C)c(-c2cccc3nn(C[C@H](O)c4ccccc4)cc23)nn1-c1cc2cn(C)nc2[n+]([O-])c1C1CC1` [Example 50, 6-cyclopropyl-5-(3-{2-[(2R)-2-hydroxy-2-phenylethyl]-2H-indazol-4-yl}-5-methyl-4-(propan-2-yl)-1H-pyrazol-1-yl)-2-methyl-2H-pyrazolo[3,4-b]pyridin-7-ium-7-olate] the DSF was 26 K.
Molecule `Cc1c(C(C)C)c(-c2cccc3nn(C[C@H](O)c4ccccc4)cc23)nn1-c1cc2cn(C)nc2nc1C1(F)CC1` [Example 51, (1R)-2-(4-{1-[6-(1-fluorocyclopropyl)-2-methyl-2H-pyrazolo[3,4-b]pyridin-5-yl]-5-methyl-4-(propan-2-yl)-1H-pyrazol-3-yl}-2H-indazol-2-yl)-1-phenylethan-1-ol] has a DSF of 26 K.
Work on `CO[C@@H](Cn1cc2c(-c3nn(-c4cc5cn(C)nc5nc4C)c(C)c3C(C)C)cccc2n1)c1ccccc1` [Example 52, 4-(1-{2,6-dimethyl-2H-pyrazolo[3,4-b]pyridin-5-yl}-5-methyl-4-(propan-2-yl)-1H-pyrazol-3-yl)-2-[(2R)-2-methoxy-2-phenylethyl]-2H-indazole] yielded a DSF of 25 K.
For `Cc1c(C(C)C)c(-c2cccc3nn(C[C@H](O)c4ccccc4)cc23)nn1-c1cc2cn(C)nc2nc1C1CCC1` [Example 53, (1R)-2-[4-(1-{6-cyclobutyl-2-methyl-2H-pyrazolo[3,4-b]pyridin-5-yl}-5-methyl-4-(propan-2-yl)-1H-pyrazol-3-yl)-2H-indazol-2-yl]-1-phenylethan-1-ol], the DSF was 30 K.
With `Cc1c(C(C)C)c(-c2cccc3nn(C[C@H](O)c4ccccc4)cc23)nn1-c1cc2cn(C)nc2nc1CC1CC1` [Example 54, (1R)-2-(4-{1-[6-(cyclopropylmethyl)-2-methyl-2H-pyrazolo[3,4-b]pyridin-5-yl]-5-methyl-4-(propan-2-yl)-1H-pyrazol-3-yl}-2H-indazol-2-yl)-1-phenylethan-1-ol] the DSF was 28 K.
Work on `Cn1cc2cc(-c3nc(-c4cccc5nn(C[C@H](O)c6ccc(O)cc6)cc45)c(C4CC4)n3C)c(C3CC3)nc2n1` [Example 55, 4-[(1R)-2-[4-(5-cyclopropyl-2-{6-cyclopropyl-2-methyl-2H-pyrazolo[3,4-b]pyridin-5-yl}-1-methyl-1H-imidazol-4-yl)-2H-indazol-2-yl]-1-hydroxyethyl]phenol] yielded a DSF of 29 K.
`Cc1nc2nn(CC3CC3)cc2cc1-n1nc(-c2cccc3nn(C[C@H](O)c4ccccc4)cc23)c(C(C)C)c1C` [Example 56, (1R)-2-(4-{1-[2-(cyclopropylmethyl)-6-methyl-2H-pyrazolo[3,4-b]pyridin-5-yl]-5-methyl-4-(propan-2-yl)-1H-pyrazol-3-yl}-2H-indazol-2-yl)-1-phenylethan-1-ol] gave a DSF of 25 K.
In the case of `CC(C)c1c(-c2cccc3nn(C[C@H](O)c4ccccc4)cc23)nc(-c2cc3cn(C)nc3nc2C(F)(F)F)n1C` [Example 57, (1R)-2-(4-{1-methyl-2-[2-methyl-6-(trifluoromethyl)-2H-pyrazolo[3,4-b]pyridin-5-yl]-5-(propan-2-yl)-1H-imidazol-4-yl}-2H-indazol-2-yl)-1-phenylethan-1-ol], the DSF is reported as 27 K.
Molecule `COC(C)c1nc2nn(C)cc2cc1-n1nc(-c2cccc3nn(C[C@H](O)c4ccccc4)cc23)c(C(C)C)c1C` (stereo partly drawn) [Example 58, (1R)-2-(4-{1-[6-(1-methoxyethyl)-2-methyl-2H-pyrazolo[3,4-b]pyridin-5-yl]-5-methyl-4-(propan-2-yl)-1H-pyrazol-3-yl}-2H-indazol-2-yl)-1-phenylethan-1-ol] has a DSF of 28 K.
In the case of `CCCc1nc2nn(C)cc2cc1-n1nc(-c2cccc3nn(C[C@H](O)c4ccccc4)cc23)c(C(C)C)c1C` [Example 60, (1R)-2-[4-(5-methyl-1-{2-methyl-6-propyl-2H-pyrazolo[3,4-b]pyridin-5-yl}-4-(propan-2-yl)-1H-pyrazol-3-yl)-2H-indazol-2-yl]-1-phenylethan-1-ol], the DSF is reported as 28 K.
`Cc1nc2nn(Cc3ncnn3C)cc2cc1-n1nc(-c2cccc3nn(C[C@H](O)c4ccccc4)cc23)c(C(C)C)c1C` [Example 62, (1R)-2-[4-(5-methyl-1-{6-methyl-2-[(1-methyl-1H-1,2,4-triazol-5-yl)methyl]-2H-pyrazolo[3,4-b]pyridin-5-yl}-4-(propan-2-yl)-1H-pyrazol-3-yl)-2H-indazol-2-yl]-1-phenylethan-1-ol] was tested, and the DSF was 25 K.
Molecule `Cc1nc2nn(C)cc2cc1-n1nc(-c2cccc3nn(C[C@H](OCC4CC4)c4ccccc4)cc23)c(C(C)C)c1C` [Example 63, 2-[(2R)-2-(cyclopropylmethoxy)-2-phenylethyl]-4-(1-{2,6-dimethyl-2H-pyrazolo[3,4-b]pyridin-5-yl}-5-methyl-4-(propan-2-yl)-1H-pyrazol-3-yl)-2H-indazole] has a DSF of 22 K.
Molecule `Cc1c(C(C)C)c(-c2cccc3nn(C[C@H](O)c4ccccc4)cc23)nn1-c1cc2cn(C)nc2nc1C(F)F` [Example 64, (1R)-2-(4-{1-[6-(difluoromethyl)-2-methyl-2H-pyrazolo[3,4-b]pyridin-5-yl]-5-methyl-4-(propan-2-yl)-1H-pyrazol-3-yl}-2H-indazol-2-yl)-1-phenylethan-1-ol] has a DSF of 26 K.
With `Cc1nc2nn(C)cc2cc1-n1nc(-c2cccc3nn(CCc4ccc(OCCN(C)C)cc4)cc23)c(C(C)C)c1C` [Example 65, [2-(4-{2-[4-(1-{2,6-dimethyl-2H-pyrazolo[3,4-b]pyridin-5-yl}-5-methyl-4-(propan-2-yl)-1H-pyrazol-3-yl)-2H-indazol-2-yl]ethyl}phenoxy)ethyl]dimethylamine] the DSF was 26 K.
In the case of `Cc1nc2nn(C)cc2cc1-n1nc(-c2cccc3nn(C[C@H](OCCCCO)c4ccccc4)cc23)c(C(C)C)c1C` [Example 66, 4-[(1R)-2-[4-(1-{2,6-dimethyl-2H-pyrazolo[3,4-b]pyridin-5-yl}-5-methyl-4-(propan-2-yl)-1H-pyrazol-3-yl)-2H-indazol-2-yl]-1-phenylethoxy]butan-1-ol], the DSF is reported as 23 K.
With `Cc1nc2nn(CC(O)CO)cc2cc1-n1nc(-c2cccc3nn(C[C@H](O)c4ccccc4)cc23)c(C(C)C)c1C` (stereo partly drawn) [Example 67, 3-[5-(3-{2-[(2R)-2-hydroxy-2-phenylethyl]-2H-indazol-4-yl}-5-methyl-4-(propan-2-yl)-1H-pyrazol-1-yl)-6-methyl-2H-pyrazolo[3,4-b]pyridin-2-yl]propane-1,2-diol] the DSF was 26 K.
`Cn1cc2cc(-c3nc(-c4cccc5nn(C[C@H](O)c6ccc(OCC7CCOCC7)cc6)cc45)c(C4CC4)n3C)c(C3CC3)nc2n1` [Example 68] gave a DSF of 28 K.
Work on `Cn1cc2cc(-c3nc(-c4cccc5nn(C[C@H](O)c6ccc(OC7COC7)cc6)cc45)c(C4CC4)n3C)c(C3CC3)nc2n1` [Example 69, (1R)-2-[4-(5-cyclopropyl-2-{6-cyclopropyl-2-methyl-2H-pyrazolo[3,4-b]pyridin-5-yl}-1-methyl-1H-imidazol-4-yl)-2H-indazol-2-yl]-1-[4-(oxetan-3-yloxy)phenyl]ethan-1-ol] yielded a DSF of 29 K.
`Cc1nc2nn(CC(O)CN3CCN(C)CC3)cc2cc1-n1nc(-c2cccc3nn(C[C@H](O)c4ccccc4)cc23)c(C(C)C)c1C` (stereo partly drawn) [Example 70, 1-[5-(3-{2-[(2R)-2-hydroxy-2-phenylethyl]-2H-indazol-4-yl}-5-methyl-4-(propan-2-yl)-1H-pyrazol-1-yl)-6-methyl-2H-pyrazolo[3,4-b]pyridin-2-yl]-3-(4-methylpiperazin-1-yl)propan-2-ol] was tested, and the DSF was 24 K.
Molecule `CCc1nc2nn(C)cc2cc1-c1nc(-c2cccc3nn(C[C@H](F)c4ccc(Cl)cc4)cc23)c(C2CC2)n1C` [Example 72, 2-[(2R)-2-(4-chlorophenyl)-2-fluoroethyl]-4-(5-cyclopropyl-2-{6-ethyl-2-methyl-2H-pyrazolo[3,4-b]pyridin-5-yl}-1-methyl-1H-imidazol-4-yl)-2H-indazole] has a DSF of 30 K.
`Cc1c(C(C)C)c(-c2cccc3nn(C[C@H](O)c4ccccc4)cc23)nn1-c1cc2cn(C)nc2nc1C1CCOCC1` [Example 73, (1R)-2-(4-{5-methyl-1-[2-methyl-6-(oxan-4-yl)-2H-pyrazolo[3,4-b]pyridin-5-yl]-4-(propan-2-yl)-1H-pyrazol-3-yl}-2H-indazol-2-yl)-1-phenylethan-1-ol] showed a DSF of 28 K.
